In ChEMBL document CHEMBL3045788, “Effect of abamectin on root-knot nematodes and tomato yield” (Pest Manag Sci, 2012):
Active and inactive are the calls of the source. No cut-off for these calls is given here.

Legend:
Meloidogyne incognita [1] = experiment: Nematicidal activity against second-stage juvenile Meloidogyne incognita (root-knot nematode) infested tomato field assessed as plant vigour at 7.5 L/hectare measured after 30 days; assay type: functional
Meloidogyne incognita [2] = experiment: Nematicidal activity against second-stage juvenile Meloidogyne incognita (root-knot nematode) infested tomato plant under greenhouse condition assessed as reduction in root galling index at 7.5 L/hectare measured after 30 days; assay type: functional, organism-based
Meloidogyne incognita [3] = experiment: Nematicidal activity against second-stage juvenile Meloidogyne incognita (root-knot nematode) infested tomato field assessed as reduction in number of nematodes in soil at 5 L/hectare measured after 60 days; assay type: functional, organism-based
Meloidogyne incognita [4] = experiment: Nematicidal activity against second-stage juvenile Meloidogyne incognita (root-knot nematode) infested tomato plant under greenhouse condition assessed as plant height at 7.5 L/hectare measured after 30 days; assay type: functional
Meloidogyne incognita [5] = experiment: Nematicidal activity against second-stage juvenile Meloidogyne incognita (root-knot nematode) infested tomato field assessed as reduction in number of nematodes in soil at 5 L/hectare measured after 20 days; assay type: functional, organism-based
Meloidogyne incognita [6] = experiment: Nematicidal activity against second-stage juvenile Meloidogyne incognita (root-knot nematode) infested tomato field assessed as extra-large fruit yield at 5 L/hectare; assay type: functional
Meloidogyne incognita [7] = experiment: Nematicidal activity against second-stage juvenile Meloidogyne incognita (root-knot nematode) infested tomato field assessed as plant height at 10 L/hectare measured after 50 days; assay type: functional
Meloidogyne incognita [8] = experiment: Nematicidal activity against second-stage juvenile Meloidogyne incognita (root-knot nematode) infested tomato plant under greenhouse condition assessed as fresh root weight at 5 L/hectare measured after 30 days; assay type: functional
Meloidogyne incognita [9] = experiment: Nematicidal activity against second-stage juvenile Meloidogyne incognita (root-knot nematode) infested tomato field assessed as plant height at 5 L/hectare measured after 50 days; assay type: functional
Meloidogyne incognita [10] = experiment: Nematicidal activity against second-stage juvenile Meloidogyne incognita (root-knot nematode) infested tomato field assessed as marketable yield at 7.5 L/hectare; assay type: functional
Meloidogyne incognita [11] = experiment: Nematicidal activity against second-stage juvenile Meloidogyne incognita (root-knot nematode) infested tomato field assessed as reduction in number of nematodes in soil at 7.5 L/hectare measured after 60 days; assay type: functional, organism-based
Meloidogyne incognita [12] = experiment: Nematicidal activity against second-stage juvenile Meloidogyne incognita (root-knot nematode) infested tomato field assessed as reduction in number of nematodes in soil at 7.5 L/hectare measured after 40 days; assay type: functional, organism-based
Meloidogyne incognita [13] = experiment: Nematicidal activity against second-stage juvenile Meloidogyne incognita (root-knot nematode) infested tomato field assessed as marketable yield at 10 L/hectare; assay type: functional
Meloidogyne incognita [14] = experiment: Nematicidal activity against second-stage juvenile Meloidogyne incognita (root-knot nematode) infested tomato field assessed as plant vigour at 5 L/hectare measured after 30 days; assay type: functional
Meloidogyne incognita [15] = experiment: Nematicidal activity against second-stage juvenile Meloidogyne incognita (root-knot nematode) infested tomato field assessed as medium fruit yield at 7.5 L/hectare; assay type: functional
Meloidogyne incognita [16] = experiment: Nematicidal activity against second-stage juvenile Meloidogyne incognita (root-knot nematode) infested tomato field assessed as plant height at 7.5 L/hectare measured after 50 days; assay type: functional
Meloidogyne incognita [17] = experiment: Nematicidal activity against second-stage juvenile Meloidogyne incognita (root-knot nematode) infested tomato field assessed as plant height at 10 L/hectare measured after 30 days; assay type: functional
Meloidogyne incognita [18] = experiment: Nematicidal activity against second-stage juvenile Meloidogyne incognita (root-knot nematode) assessed as mortality after 48 hr; assay type: functional
Meloidogyne incognita [19] = experiment: Nematicidal activity against second-stage juvenile Meloidogyne incognita (root-knot nematode) infested tomato plant under greenhouse condition assessed as plant vigour at 10 L/hectare measured after 30 days; assay type: functional
Meloidogyne incognita [20] = experiment: Nematicidal activity against second-stage juvenile Meloidogyne incognita (root-knot nematode) infested tomato field assessed as reduction in root galling index at 10 L/hectare measured after 30 days; assay type: functional, organism-based
Meloidogyne incognita [21] = experiment: Nematicidal activity against second-stage juvenile Meloidogyne incognita (root-knot nematode) infested tomato field assessed as extra-large fruit yield at 7.5 L/hectare; assay type: functional
Meloidogyne incognita [22] = experiment: Nematicidal activity against second-stage juvenile Meloidogyne incognita (root-knot nematode) infested tomato field assessed as extra-large fruit yield at 10 L/hectare; assay type: functional
Meloidogyne incognita [23] = experiment: Nematicidal activity against second-stage juvenile Meloidogyne incognita (root-knot nematode) infested tomato field assessed as marketable yield at 5 L/hectare; assay type: functional
Meloidogyne incognita [24] = experiment: Nematicidal activity against Meloidogyne incognita (root-knot nematode) assessed as per seed; assay type: functional, organism-based
Meloidogyne incognita [25] = experiment: Nematicidal activity against second-stage juvenile Meloidogyne incognita (root-knot nematode) infested tomato field assessed as plant height at 5 L/hectare measured after 30 days; assay type: functional
Meloidogyne incognita [26] = experiment: Nematicidal activity against second-stage juvenile Meloidogyne incognita (root-knot nematode) infested tomato field assessed as large fruit yield at 10 L/hectare; assay type: functional
Meloidogyne incognita [27] = experiment: Nematicidal activity against second-stage juvenile Meloidogyne incognita (root-knot nematode) infested tomato plant under greenhouse condition assessed as plant vigour at 5 L/hectare measured after 30 days; assay type: functional
Meloidogyne incognita [28] = experiment: Nematicidal activity against second-stage juvenile Meloidogyne incognita (root-knot nematode) infested tomato field assessed as reduction in root galling index at 7.5 L/hectare measured after 30 days; assay type: functional, organism-based
Meloidogyne incognita [29] = experiment: Nematicidal activity against second-stage juvenile Meloidogyne incognita (root-knot nematode) infested tomato field assessed as large fruit yield at 5 L/hectare; assay type: functional
Meloidogyne incognita [30] = experiment: Nematicidal activity against second-stage juvenile Meloidogyne incognita (root-knot nematode) infested tomato field assessed as plant vigour at 10 L/hectare measured after 30 days; assay type: functional
Meloidogyne incognita [31] = experiment: Nematicidal activity against second-stage juvenile Meloidogyne incognita (root-knot nematode) infested tomato plant under greenhouse condition assessed as reduction in root galling index at 10 L/hectare measured after 30 days; assay type: functional, organism-based
Meloidogyne incognita [32] = experiment: Nematicidal activity against second-stage juvenile Meloidogyne incognita (root-knot nematode) infested tomato plant under greenhouse condition assessed as fresh root weight at 7.5 L/hectare measured after 30 days; assay type: functional
Meloidogyne incognita [33] = experiment: Nematicidal activity against second-stage juvenile Meloidogyne incognita (root-knot nematode) infested tomato field assessed as reduction in number of nematodes in soil at 10 L/hectare measured after 20 days; assay type: functional, organism-based
Meloidogyne incognita [34] = experiment: Nematicidal activity against second-stage juvenile Meloidogyne incognita (root-knot nematode) infested tomato plant under greenhouse condition assessed as reduction in root galling index at 5 L/hectare measured after 30 days; assay type: functional, organism-based
Meloidogyne incognita [35] = experiment: Nematicidal activity against second-stage juvenile Meloidogyne incognita (root-knot nematode) infested tomato field assessed as reduction in number of nematodes in soil at 10 L/hectare measured after 40 days; assay type: functional, organism-based
Meloidogyne incognita [36] = experiment: Nematicidal activity against second-stage juvenile Meloidogyne incognita (root-knot nematode) infested tomato plant under greenhouse condition assessed as fresh root weight at 10 L/hectare measured after 30 days; assay type: functional
Meloidogyne incognita [37] = experiment: Nematicidal activity against second-stage juvenile Meloidogyne incognita (root-knot nematode) infested tomato field assessed as reduction in number of nematodes in soil at 10 L/hectare measured after 60 days; assay type: functional, organism-based
Meloidogyne incognita [38] = experiment: Nematicidal activity against second-stage juvenile Meloidogyne incognita (root-knot nematode) infested tomato field assessed as medium fruit yield at 5 L/hectare; assay type: functional
Meloidogyne incognita [39] = experiment: Nematicidal activity against second-stage juvenile Meloidogyne incognita (root-knot nematode) infested tomato plant under greenhouse condition assessed as plant vigour at 7.5 L/hectare measured after 30 days; assay type: functional
Meloidogyne incognita [40] = experiment: Nematicidal activity against second-stage juvenile Meloidogyne incognita (root-knot nematode) infested tomato field assessed as plant height at 7.5 L/hectare measured after 30 days; assay type: functional
Meloidogyne incognita [41] = experiment: Nematicidal activity against second-stage juvenile Meloidogyne incognita (root-knot nematode) infested tomato field assessed as reduction in root galling index at 5 L/hectare measured after 30 days; assay type: functional, organism-based
Meloidogyne incognita [42] = experiment: Nematicidal activity against second-stage juvenile Meloidogyne incognita (root-knot nematode) infested tomato field assessed as reduction in number of nematodes in soil at 5 L/hectare measured after 40 days; assay type: functional, organism-based
Meloidogyne incognita [43] = experiment: Nematicidal activity against second-stage juvenile Meloidogyne incognita (root-knot nematode) infested tomato field assessed as large fruit yield at 7.5 L/hectare; assay type: functional
Meloidogyne incognita [44] = experiment: Nematicidal activity against second-stage juvenile Meloidogyne incognita (root-knot nematode) infested tomato field assessed as medium fruit yield at 10 L/hectare; assay type: functional
Meloidogyne incognita [45] = experiment: Nematicidal activity against second-stage juvenile Meloidogyne incognita (root-knot nematode) infested tomato plant under greenhouse condition assessed as plant height at 10 L/hectare measured after 30 days; assay type: functional
Meloidogyne incognita [46] = experiment: Nematicidal activity against second-stage juvenile Meloidogyne incognita (root-knot nematode) infested tomato field assessed as reduction in number of nematodes in soil at 7.5 L/hectare measured after 20 days; assay type: functional, organism-based
Meloidogyne incognita [47] = experiment: Nematicidal activity against second-stage juvenile Meloidogyne incognita (root-knot nematode) infested tomato plant under greenhouse condition assessed as plant height at 5 L/hectare measured after 30 days; assay type: functional

For `CC[C@H](C)[C@H]1O[C@]2(C=C[C@@H]1C)C[C@@H]1C[C@@H](C/C=C(\C)[C@@H](O[C@H]3C[C@H](OC)[C@@H](O[C@H]4C[C@H](OC)[C@@H](O)[C@H](C)O4)[C@H](C)O3)[C@@H](C)/C=C/C=C3\CO[C@@H]4[C@H](O)C(C)=C[C@@H](C(=O)O1)[C@]34O)O2.CO[C@H]1C[C@H](O[C@H]2[C@H](C)O[C@@H](O[C@@H]3/C(C)=C/C[C@@H]4C[C@@H](C[C@]5(C=C[C@H](C)[C@@H](C(C)C)O5)O4)OC(=O)[C@@H]4C=C(C)[C@@H](O)[C@H]5OC/C(=C\C=C\[C@@H]3C)[C@]54O)C[C@@H]2OC)O[C@@H](C)[C@@H]1O` [ABAMECTIN], the Activity (Meloidogyne incognita [1]) was 87%, the Activity (Meloidogyne incognita [2]) was “Active” and the Activity (Meloidogyne incognita [3]) was “Active”. For the same compound, the Activity (Meloidogyne incognita [4]) was 37.5 cm, the Activity (Meloidogyne incognita [5]) was “Active” and the Activity (Meloidogyne incognita [6]) was 5.3%. For the same compound, the Activity (Meloidogyne incognita [7]) was 102.8 cm, the Activity (Meloidogyne incognita [8]) was 0.98 g and the Activity (Meloidogyne incognita [9]) was 94.3 cm. For the same compound, the Activity (Meloidogyne incognita [10]) was 63.4%, the Activity (Meloidogyne incognita [11]) was “Active” and the Activity (Meloidogyne incognita [12]) was “Active”. The Activity (Meloidogyne incognita [13]) was 69.2%, the Activity (Meloidogyne incognita [14]) was 85% and the Activity (Meloidogyne incognita [15]) was 39.5%. It also gave an Activity (Meloidogyne incognita [16]) of 98.6 cm, an Activity (Meloidogyne incognita [17]) of 39.1 cm and an LC50 (Meloidogyne incognita [18]) of 7.06 mgAi/L. For the same compound, the LC90 (Meloidogyne incognita [18]) was 21.81 mgAi/L, the Activity (Meloidogyne incognita [19]) was 92% and the Activity (Meloidogyne incognita [20]) was “Active”. It also gave an Activity (Meloidogyne incognita [21]) of 5.8%, an Activity (Meloidogyne incognita [22]) of 7.3% and an Activity (Meloidogyne incognita [23]) of 59.4%. For the same compound, the EC50 (Meloidogyne incognita [24]) was 0.016 mgAi, the EC80 (Meloidogyne incognita [24]) was 0.28 mgAi and the Activity (Meloidogyne incognita [25]) was 32.4 cm. The Activity (Meloidogyne incognita [26]) was 20.6%, the Activity (Meloidogyne incognita [27]) was 85% and the Activity (Meloidogyne incognita [28]) was “Active”. For the same compound, the Activity (Meloidogyne incognita [29]) was 17.4%, the Activity (Meloidogyne incognita [30]) was 92% and the Activity (Meloidogyne incognita [31]) was “Active”. The Activity (Meloidogyne incognita [32]) was 1.09 g, the Activity (Meloidogyne incognita [33]) was “Active” and the Activity (Meloidogyne incognita [34]) was “Active”. For the same compound, the Activity (Meloidogyne incognita [35]) was “Active”, the Activity (Meloidogyne incognita [36]) was 1.14 g and the Activity (Meloidogyne incognita [37]) was “Active”. For the same compound, the Activity (Meloidogyne incognita [38]) was 36.7%, the Activity (Meloidogyne incognita [39]) was 87% and the Activity (Meloidogyne incognita [40]) was 35.9 cm. The Activity (Meloidogyne incognita [41]) was “Active”, the Activity (Meloidogyne incognita [42]) was “Active” and the Activity (Meloidogyne incognita [43]) was 18.1%. For the same compound, the Activity (Meloidogyne incognita [44]) was 41.3%, the Activity (Meloidogyne incognita [45]) was 39.2 cm and the Activity (Meloidogyne incognita [46]) was “Active”. It also gave an Activity (Meloidogyne incognita [47]) of 35.4 cm.
